Converted amounts (≈) assume the structure as drawn. Read-outs that look alike come from different tables or passages of the source.
Experiments:
[1] = tested on: C. krusei ATCC 6258; test: Anti-Fungal (Candida) Activity Assay, broth microtiter MIC; format: cell-based, Candida krusei; conditions: Pichia kudriavzevii, ATCC6258, 48 h, 3 replicates, MIC read at 48 h
Summary of the method: (§1)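 Broth microdilution per CLSI M27-A3 in RPMI 1640 + MOPS, at a final inoculum of 2.5×10^3 CFU/mL. Compound DMSO stocks were diluted in water to a 128 μg/mL working solution. MIC was read visually against the growth control at 48 h.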

[2] = tested on: C. albicans ATCC 90028; test: as above; format: cell-based; conditions: ATCC90028, 48 h, 3 replicates, MIC read at 48 h
Summary of the method: as §1

[3] = tested on: C. parapsilosis ATCC 22019; test: as above; format: cell-based; conditions: Lodderomyces parapsilosis, ATCC22019, 48 h, 3 replicates, MIC read at 48 h
Summary of the method: as §1

[4] = tested on: Fusarium moniliforme (Fm); test: Growth inhibition assay of fungal pathogens; format: cell-based; conditions: Fusarium verticillioides, 48 h, read-out: Concentration at 90% Inhibition Fm
Summary of the method: (§2)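 Read-out was OD600 with visual scoring at 48 h, expressed as percent inhibition relative to wells containing 2% DMSO alone. Test wells held spores in 17% V8 liquid medium, with compound at final levels of either 50, 10, 2 ppm or 2, 0.4, 0.08 ppm.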

[5] = tested on: Phytophthora capsici (Pc); test: Growth inhibition assay of fungal pathogens; format: cell-based; conditions: 48 h, read-out: Concentration at 90% Inhibition Pc
Summary of the method: as §2

[6] = tested on: Rhizoctonia solani (Rs); test: Growth inhibition assay of fungal pathogens; format: cell-based; conditions: 48 h, read-out: Concentration at 90% Inhibition Rs
Summary of the method: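 Percent growth inhibition is scored at 48 h, by OD600 (blank-subtracted) and visual rating against the 2% DMSO control. Compounds were tested at final 50, 10, 2 ppm or 2, 0.4, 0.08 ppm on pathogen spores diluted in 17% V8 medium; mycelial plugs in ¼ PDB were used for Rhizoctonia.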

[7] = tested on: Diplodia maydis (Dm); test: Growth inhibition assay of fungal pathogens; format: cell-based; conditions: Stenocarpella maydis, 48 h, read-out: Concentration at 90% Inhibition Dm
Summary of the method: as §2

[8] = tested on: Collectotrichum graminicola (Cg); test: Growth inhibition assay of fungal pathogens; format: cell-based; conditions: 48 h, read-out: Concentration at 90% Inhibition Cg
Summary of the method: as §2

[9] = tested on: Fusarium virguliforme (Fv); test: Growth inhibition assay of fungal pathogens; format: cell-based; conditions: 48 h, read-out: Concentration at 90% Inhibition Fv
Summary of the method: as §2

[10] = tested on: Botrtyis cinerea (Bc); test: Growth inhibition assay of fungal pathogens; format: cell-based; conditions: 48 h, read-out: Concentration at 90% Inhibition Bc
Summary of the method: as §2

[11] = tested on: Septoria tritici (St); test: Growth inhibition assay of fungal pathogens; format: cell-based; conditions: Zymoseptoria tritici, 48 h, read-out: Concentration at 90% Inhibition St
Summary of the method: as §2

Structure (SMILES) | MIC ([1]; Table 3a) | MIC ([1]; Table 3b (additional results)) | MIC ([2]; Table 3b (additional results)) | MIC ([3]; Table 3b (additional results)) | IC90 ([4]; Table 4a) | IC90 ([4]; Table 4b) | IC90 ([5]; Table 4a) | IC90 ([5]; Table 4b) | IC90 ([6]; Table 4a) | IC90 ([6]; Table 4b) | IC90 ([7]; Table 4a) | IC90 ([7]; Table 4b) | IC90 ([8]; Table 4a) | IC90 ([8]; Table 4b) | IC90 ([9]; Table 4a) | IC90 ([9]; Table 4b) | IC90 ([10]; Table 4a) | IC90 ([10]; Table 4b) | IC90 ([11]; Table 4a) | IC90 ([11]; Table 4b) | also measured
CCOC(=O)c1sc2c(c1C)c(=O)n(C(C)(C)C(=O)N1CCCC1)c(=O)n2C[C@H](OCCC#N)c1cc(F)ccc1OC [Compound I-16, (R)-ethyl 1-(2-(2-cyanoethoxy)-2-(5-fluoro-2-methoxy-phenyl)ethyl)-5-methyl-3-(2-methyl-1-oxo-1-(pyrrolidin-1-yl)propan-2-yl)-2,4-dioxo-1,2,3,4-tetrahydrothieno[2,3-d]pyrimidine-6-carboxylate] | > 4.1 µg/mL | 2.1 to 4 µg/mL (≈ 3.42 to 6.51 µM) | 2.1 to 4 µg/mL (≈ 3.42 to 6.51 µM) | 0.25 to 1 µg/mL (≈ 0.407 to 1.63 µM) | 0.08 µg/mL (≈ 0.13 µM) | 0.08 µg/mL (≈ 0.13 µM) | ≥ 50 µg/mL | ≥ 50 µg/mL | 0.4 µg/mL (≈ 0.651 µM) | 0.4 µg/mL (≈ 0.651 µM) | 2 µg/mL (≈ 3.25 µM) | 2 µg/mL (≈ 3.25 µM) | 2 µg/mL (≈ 3.25 µM) | 2 µg/mL (≈ 3.25 µM) | 2 µg/mL (≈ 3.25 µM) | 2 µg/mL (≈ 3.25 µM) | 2 µg/mL (≈ 3.25 µM) | 2 µg/mL (≈ 3.25 µM) | ≥ 50 µg/mL | ≥ 50 µg/mL | MIC ([2]; Table 3a): > 4.1 µg/mL; MIC ([3]; Table 3a): > 4.1 µg/mL
CCOC(=O)c1sc2c(c1C)c(=O)n(C(C)(C)C(N)=O)c(=O)n2C[C@H](OCCO)c1cc(F)ccc1OC [Compound I-17, (R)-ethyl 3-(1-amino-2-methyl-1-oxopropan-2-yl)-1-(2-(5-fluoro-2-methoxyphenyl)-2-(2-hydroxyethoxy)ethyl)-5-methyl-2,4-dioxo-1,2,3,4-tetrahydro-thieno[2,3-d]pyrimidine-6-carboxylate] | > 4.1 µg/mL | 2.1 to 4 µg/mL (≈ 3.81 to 7.25 µM) | 2.1 to 4 µg/mL (≈ 3.81 to 7.25 µM) | 1.1 to 2 µg/mL (≈ 1.99 to 3.63 µM) | 2 µg/mL (≈ 3.63 µM) | 2 µg/mL (≈ 3.63 µM) | ≥ 50 µg/mL | ≥ 50 µg/mL | 2 µg/mL (≈ 3.63 µM) | 2 µg/mL (≈ 3.63 µM) | ≥ 50 µg/mL | ≥ 50 µg/mL | ≥ 50 µg/mL | ≥ 50 µg/mL | ≥ 50 µg/mL | ≥ 50 µg/mL | ≥ 50 µg/mL | 10 µg/mL (≈ 18.1 µM) | ≥ 50 µg/mL | ≥ 50 µg/mL | MIC ([2]; Table 3a): > 4.1 µg/mL; MIC ([3]; Table 3a): > 4.1 µg/mL
CCOC(=O)c1sc2c(c1C)c(=O)n(C(C)(C)C(=O)NC(C)C)c(=O)n2C[C@H](OCCO)c1cc(F)ccc1OC [Compound I-18, (R)-ethyl 1-(2-(5-fluoro-2-methoxyphenyl)-2-(2-hydroxy-ethoxy)ethyl)-3-(1-(isopropylamino)-2-methyl-1-oxopropan-2-yl)-5-methyl-2,4-dioxo-1,2,3,4-tetrahydrothieno[2,3-d]pyrimidine-6-carboxylate] | 0.25 to 1 µg/mL (≈ 0.421 to 1.68 µM) | 0.25 to 1 µg/mL (≈ 0.421 to 1.68 µM) | 1.1 to 2 µg/mL (≈ 1.85 to 3.37 µM) | 1.1 to 2 µg/mL (≈ 1.85 to 3.37 µM) | 0.08 µg/mL (≈ 0.135 µM) | 0.08 µg/mL (≈ 0.135 µM) | ≥ 50 µg/mL | ≥ 50 µg/mL | 0.08 µg/mL (≈ 0.135 µM) | 0.08 µg/mL (≈ 0.135 µM) | 0.4 µg/mL (≈ 0.674 µM) | 0.4 µg/mL (≈ 0.674 µM) | 0.4 µg/mL (≈ 0.674 µM) | 0.4 µg/mL (≈ 0.674 µM) | 2 µg/mL (≈ 3.37 µM) | 2 µg/mL (≈ 3.37 µM) | 2 µg/mL (≈ 3.37 µM) | 2 µg/mL (≈ 3.37 µM) | ≥ 50 µg/mL | ≥ 50 µg/mL | MIC ([2]; Table 3a): 1.1 to 2 µg/mL (≈ 1.85 to 3.37 µM); MIC ([3]; Table 3a): 2.1 to 4 µg/mL (≈ 3.54 to 6.74 µM)
CCOC(=O)c1sc2c(c1C)c(=O)n(C(C)(C)C(=O)NC(C)C)c(=O)n2C[C@H](O)c1cc(F)ccc1OC [Compound I-19, (R)-ethyl 1-(2-(5-fluoro-2-methoxyphenyl)-2-hydroxyethyl)-3-(1-(isopropylamino)-2-methyl-1-oxopropan-2-yl)-5-methyl-2,4-dioxo-1,2,3,4-tetrahydrothieno[2,3-d]pyrimidine-6-carboxylate] |  | 0.25 to 1 µg/mL (≈ 0.455 to 1.82 µM) | 0.25 to 1 µg/mL (≈ 0.455 to 1.82 µM) | 2.1 to 4 µg/mL (≈ 3.82 to 7.28 µM) | 0.08 µg/mL (≈ 0.146 µM) | 0.08 µg/mL (≈ 0.146 µM) | ≥ 50 µg/mL | ≥ 50 µg/mL | 0.4 µg/mL (≈ 0.728 µM) | 0.4 µg/mL (≈ 0.728 µM) | 2 µg/mL (≈ 3.64 µM) | 2 µg/mL (≈ 3.64 µM) | 2 µg/mL (≈ 3.64 µM) | 2 µg/mL (≈ 3.64 µM) | 0.08 µg/mL (≈ 0.146 µM) | 0.08 µg/mL (≈ 0.146 µM) | 0.4 µg/mL (≈ 0.728 µM) | 0.4 µg/mL (≈ 0.728 µM) | ≥ 50 µg/mL | ≥ 50 µg/mL | 
CCOC(=O)c1sc2c(c1C)c(=O)n([C@@H](C)C(=O)NC(C)C)c(=O)n2C[C@H](OCCC#N)c1cc(F)ccc1OC [Compound I-20, ethyl 1-((R)-2-(2-cyanoethoxy)-2-(5-fluoro-2-methoxy-phenyl)ethyl)-3-((S)-1-(isopropylamino)-1-oxopropan-2-yl)-5-methyl-2,4-dioxo-1,2,3,4-tetrahydrothieno[2,3-d]pyrimidine-6-carboxylate] |  | 1.1 to 2 µg/mL (≈ 1.87 to 3.4 µM) | 2.1 to 4 µg/mL (≈ 3.57 to 6.8 µM) | 2.1 to 4 µg/mL (≈ 3.57 to 6.8 µM) |  | 0.4 µg/mL (≈ 0.68 µM) |  | ≥ 50 µg/mL |  | ≥ 50 µg/mL |  | 10 µg/mL (≈ 17 µM) |  | 10 µg/mL (≈ 17 µM) |  | 10 µg/mL (≈ 17 µM) |  | 2 µg/mL (≈ 3.4 µM) |  | ≥ 50 µg/mL | 
CCOC(=O)c1sc2c(c1C)c(=O)n([C@H](C)C(=O)NC(C)C)c(=O)n2C[C@H](OCCC#N)c1cc(F)ccc1OC [Compound I-21, ethyl 1-((R)-2-(2-cyanoethoxy)-2-(5-fluoro-2-methoxyphenyl)ethyl)-3-((R)-1-(isopropylamino)-1-oxopropan-2-yl)-5-methyl-2,4-dioxo-1,2,3,4-tetrahydrothieno[2,3-d]pyrimidine-6-carboxylate] |  | 2.1 to 4 µg/mL (≈ 3.57 to 6.8 µM) | 1.1 to 2 µg/mL (≈ 1.87 to 3.4 µM) | 2.1 to 4 µg/mL (≈ 3.57 to 6.8 µM) |  | 0.08 µg/mL (≈ 0.136 µM) |  | 10 µg/mL (≈ 17 µM) |  | 0.08 µg/mL (≈ 0.136 µM) |  | 0.4 µg/mL (≈ 0.68 µM) |  | 0.4 µg/mL (≈ 0.68 µM) |  | 0.4 µg/mL (≈ 0.68 µM) |  | 0.4 µg/mL (≈ 0.68 µM) |  | ≥ 50 µg/mL | 
CCOC(=O)c1sc2c(c1C)c(=O)n(C(C)(C)C(=O)N1CCCC1)c(=O)n2C[C@H](O)c1cc(F)ccc1OC [Compound I-22, (R)-ethyl 1-(2-(5-fluoro-2-methoxyphenyl)-2-hydroxyethyl)-5-methyl-3-(2-methyl-1-oxo-1-(pyrrolidin-1-yl)propan-2-yl)-2,4-dioxo-1,2,3,4-tetrahydrothieno[2,3-d]pyrimidine-6-carboxylate] |  | 2.1 to 4 µg/mL (≈ 3.74 to 7.12 µM) | 2.1 to 4 µg/mL (≈ 3.74 to 7.12 µM) | 0.25 to 1 µg/mL (≈ 0.445 to 1.78 µM) |  | 2 µg/mL (≈ 3.56 µM) |  | ≥ 50 µg/mL |  | 0.08 µg/mL (≈ 0.142 µM) |  | ≥ 50 µg/mL |  | 10 µg/mL (≈ 17.8 µM) |  | 2 µg/mL (≈ 3.56 µM) |  | 2 µg/mL (≈ 3.56 µM) |  | ≥ 50 µg/mL | 
CCOC(=O)c1sc2c(c1C)c(=O)n([C@@H](C)C(=O)N1CCCC1)c(=O)n2C[C@H](OCCC#N)c1cc(F)ccc1OC [Compound I-23, ethyl 1-((R)-2-(2-cyanoethoxy)-2-(5-fluoro-2-methoxy-phenyl)ethyl)-5-methyl-2,4-dioxo-3-((S)-1-oxo-1-(pyrrolidin-1-yl)propan-2-yl)-1,2,3,4-tetrahydrothieno[2,3-d]pyrimidine-6-carboxylate] |  | 0.25 to 1 µg/mL (≈ 0.416 to 1.66 µM) | 2.1 to 4 µg/mL (≈ 3.5 to 6.66 µM) | > 4.1 µg/mL |  | 2 µg/mL (≈ 3.33 µM) |  | ≥ 50 µg/mL |  | 10 µg/mL (≈ 16.6 µM) |  | 10 µg/mL (≈ 16.6 µM) |  | ≥ 50 µg/mL |  | ≥ 50 µg/mL |  | 10 µg/mL (≈ 16.6 µM) |  | ≥ 50 µg/mL | 
CCOC(=O)c1sc2c(c1C)c(=O)n([C@H](C)C(=O)N1CCCC1)c(=O)n2C[C@H](OCCC#N)c1cc(F)ccc1OC [Compound I-24, ethyl 1-((R)-2-(2-cyanoethoxy)-2-(5-fluoro-2-methoxy-phenyl)ethyl)-5-methyl-2,4-dioxo-3-((R)-1-oxo-1-(pyrrolidin-1-yl)propan-2-yl)-1,2,3,4-tetrahydrothieno[2,3-d]pyrimidine-6-carboxylate] |  | 2.1 to 4 µg/mL (≈ 3.5 to 6.66 µM) | 2.1 to 4 µg/mL (≈ 3.5 to 6.66 µM) | 0.25 to 1 µg/mL (≈ 0.416 to 1.66 µM) |  | 0.08 µg/mL (≈ 0.133 µM) |  | ≥ 50 µg/mL |  | 0.08 µg/mL (≈ 0.133 µM) |  | 2 µg/mL (≈ 3.33 µM) |  | 2 µg/mL (≈ 3.33 µM) |  | 2 µg/mL (≈ 3.33 µM) |  | 2 µg/mL (≈ 3.33 µM) |  | ≥ 50 µg/mL | 

From US11098055B2, “Ester ACC inhibitors and uses thereof” (Gilead Apollo, LLC, priority 2015, dated 2021)
